One assay concerns the target T1, human TLR7 (Homo sapiens, UniProt Q9NYK1).
T1 construct: host or cells: HEK293 NF-kB reporter cells
T1 sequence (Q9NYK1 27-1049): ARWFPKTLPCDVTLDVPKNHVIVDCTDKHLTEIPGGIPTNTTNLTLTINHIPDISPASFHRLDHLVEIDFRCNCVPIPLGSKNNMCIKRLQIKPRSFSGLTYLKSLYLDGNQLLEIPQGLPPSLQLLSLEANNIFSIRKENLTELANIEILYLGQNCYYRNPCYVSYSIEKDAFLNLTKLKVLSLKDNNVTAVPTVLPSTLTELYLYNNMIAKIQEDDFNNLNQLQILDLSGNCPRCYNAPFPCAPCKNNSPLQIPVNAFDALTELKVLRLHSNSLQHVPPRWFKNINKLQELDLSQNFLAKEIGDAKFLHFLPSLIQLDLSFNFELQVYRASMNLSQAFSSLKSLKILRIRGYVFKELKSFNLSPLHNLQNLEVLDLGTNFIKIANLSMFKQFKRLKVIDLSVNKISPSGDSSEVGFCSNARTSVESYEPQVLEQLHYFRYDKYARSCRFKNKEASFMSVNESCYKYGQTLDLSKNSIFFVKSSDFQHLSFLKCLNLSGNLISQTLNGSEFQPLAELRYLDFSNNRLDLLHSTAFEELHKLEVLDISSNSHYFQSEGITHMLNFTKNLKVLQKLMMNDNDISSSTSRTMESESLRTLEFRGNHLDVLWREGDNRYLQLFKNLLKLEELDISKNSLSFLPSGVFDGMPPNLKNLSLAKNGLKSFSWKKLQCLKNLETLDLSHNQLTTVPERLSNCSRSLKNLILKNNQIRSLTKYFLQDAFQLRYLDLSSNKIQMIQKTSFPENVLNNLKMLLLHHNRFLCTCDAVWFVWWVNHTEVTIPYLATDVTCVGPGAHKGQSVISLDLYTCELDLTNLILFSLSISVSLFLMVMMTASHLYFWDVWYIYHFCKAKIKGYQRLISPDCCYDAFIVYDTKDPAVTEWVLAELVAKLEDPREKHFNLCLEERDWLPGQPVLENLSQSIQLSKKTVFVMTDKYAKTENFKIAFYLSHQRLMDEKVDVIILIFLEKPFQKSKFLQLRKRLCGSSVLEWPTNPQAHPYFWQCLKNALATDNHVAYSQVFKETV
Nature of the assay: HEK reporter assay, HEK293 reporter cells expressing human TLR7. It counts as cell-based. Particulars: for EC50: HEK293 NFKB reporter cells expressing human TLR7, read-out: HEK293 hTLR7 EC50; for TLR7 activity after NHBoc modification of the dipropylamide, versus parent compound: Human HEK293 reporter cells, BZA-2 vs BZA-1, BZA-4 vs BZA-3 (FIG. 1B, 1D). On the procedure:
Each compound was characterized by mass spectrometry and shown to have the mass indicated. Activity against HEK293 NFKB reporter cells expressing human TLR7 or human TLR8 was measured according to Example 30.
(§1) HEK293 reporter cells expressing human TLR7 or human TLR8 were purchased from Invivogen and vendor protocols were followed for cellular propagation and experimentation. Briefly, cells were grown to 80-85% confluence at 5% CO2 in DMEM supplemented with 10% FBS, Zeocin, and Blasticidin. Cells were then seeded in 96-well flat plates at 4×10^4 cells/well with substrate containing HEK detection medium and immunostimulatory molecules. Activity was measured using a plate reader at 620-655 nm wavelength.

Another assay addresses T2, human TLR8 (Homo sapiens, UniProt Q9NR97).
T2 construct: host or cells: HEK293 NF-kB reporter cells
T2 sequence (Q9NR97 27-1041): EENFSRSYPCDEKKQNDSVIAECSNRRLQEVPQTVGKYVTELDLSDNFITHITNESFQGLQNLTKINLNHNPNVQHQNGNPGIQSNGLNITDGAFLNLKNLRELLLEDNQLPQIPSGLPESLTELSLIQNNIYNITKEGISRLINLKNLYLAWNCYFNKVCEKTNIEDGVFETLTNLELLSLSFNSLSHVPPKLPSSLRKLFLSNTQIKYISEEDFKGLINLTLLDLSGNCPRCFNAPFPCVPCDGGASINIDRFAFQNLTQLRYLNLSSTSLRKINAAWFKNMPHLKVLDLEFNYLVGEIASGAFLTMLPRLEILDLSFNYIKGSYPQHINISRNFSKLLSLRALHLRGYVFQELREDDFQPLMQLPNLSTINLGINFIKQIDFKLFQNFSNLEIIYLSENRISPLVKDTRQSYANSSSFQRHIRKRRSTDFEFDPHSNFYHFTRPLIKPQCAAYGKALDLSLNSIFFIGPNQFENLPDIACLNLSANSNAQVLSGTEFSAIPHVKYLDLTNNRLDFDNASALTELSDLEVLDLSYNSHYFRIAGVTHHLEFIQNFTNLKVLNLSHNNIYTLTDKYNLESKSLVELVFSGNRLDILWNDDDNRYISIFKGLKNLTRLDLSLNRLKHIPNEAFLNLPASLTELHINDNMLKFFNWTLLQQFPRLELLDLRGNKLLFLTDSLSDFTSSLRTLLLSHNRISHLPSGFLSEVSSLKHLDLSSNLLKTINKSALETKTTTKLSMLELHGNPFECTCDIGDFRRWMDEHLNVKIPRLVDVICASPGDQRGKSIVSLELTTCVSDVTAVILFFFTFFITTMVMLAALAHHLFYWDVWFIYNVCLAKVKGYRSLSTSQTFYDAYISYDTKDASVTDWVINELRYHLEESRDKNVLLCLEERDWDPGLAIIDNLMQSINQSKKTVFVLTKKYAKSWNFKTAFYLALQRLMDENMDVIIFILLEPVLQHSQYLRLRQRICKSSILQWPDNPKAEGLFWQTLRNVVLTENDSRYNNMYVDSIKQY
Nature of the assay: HEK reporter assay, HEK293 reporter cells expressing human TLR8. The assay is classed as cell-based. Particulars: for EC50: HEK293 NFKB reporter cells expressing human TLR8, read-out: HEK293 hTLR8 EC50; for TLR8 activity after NHBoc modification of the dipropylamide, versus parent compound: Human HEK293 reporter cells, BZA-2 vs BZA-1, BZA-4 vs BZA-3 (FIG. 1A, 1C). On the procedure: Activity against HEK293 NFKB reporter cells expressing human TLR7 or human TLR8 was measured according to Example 30.
as §1
(In a reporter assay the amount or activity of a reporter protein is the signal.)

Usually EC50 stands for the concentration needed to bring the measured effect to its halfway point.

Structures are written as SMILES.

For `CCCN(CCCNC(=O)OC(C)(C)C)C(=O)C1=Cc2ccc(C(=O)Nc3cnc(NCCNC(=O)OC(C)(C)C)nc3)cc2N=C(N)C1` [8AmBza-7, tert-butyl N-[3-[[2-amino-8-[[2-[2-(tert-butoxycarbonylamino)ethylamino]pyrimidin-5-yl]carbamoyl]-3H-1-benzazepine-4-carbonyl]-propyl-amino]propyl]carbamate], the EC50 on human TLR7 is over 9 µM; on human TLR8, 1.76 µM.
`CCCN(CCCNC(=O)OC(C)(C)C)C(=O)C1=Cc2ccc(C(=O)Nc3cccc(COCCOCCNC(=O)OC(C)(C)C)c3)cc2N=C(N)C1` [8AmBza-8, tert-butyl N-[3-[[2-amino-8-[[3-[2-[2-(tert-butoxycarbonylamino)ethoxy]ethoxymethyl]phenyl]carbamoyl]-3H-1-benzazepine-4-carbonyl]-propyl-amino]propyl]carbamate]: the EC50 at human TLR7 is over 9 µM; on human TLR8 it was 0.862 µM.
The like results for `CCCN(CCCNC(=O)OC(C)(C)C)C(=O)C1=Cc2ccc(C(=O)Nc3ccccc3)cc2N=C(N)C1` [8AmBza-9, tert-butyl (3-(2-amino-8-(phenylcarbamoyl)-N-propyl-3H-benzo [b]azepine-4-carboxamido)propyl)carbamate] were, in that order, over 9 µM and 0.127 µM.
The like results for `CCCN(CCC(F)(F)F)C(=O)C1=Cc2ccc(C(=O)Nc3ccccc3)cc2N=C(N)C1` [8AmBza-14] were, in that order, over 9 µM and 0.245 µM.
For `CCCN(OCC)C(=O)C1=Cc2ccc(C(=O)Nc3ccccc3)cc2N=C(N)C1` [8AmBza-15] the same measures were 4.86 µM and 0.034 µM.
Turning to `CCCN(Cc1ccc(CN)cc1)C(=O)C1=Cc2ccc(C(=O)Nc3ccccc3)cc2N=C(N)C1` [8AmBza-16], the values for the half-maximal effective concentration (EC50) at human TLR7 and at human TLR8 were over 9 µM and 0.077 µM, respectively.
For `CCCN(Cc1ccc(CNC(=O)OC(C)(C)C)cc1)C(=O)C1=Cc2ccc(C(=O)Nc3ccccc3)cc2N=C(N)C1` [8AmBza-17] the same measures were over 9 µM and 0.782 µM.
Take `CCCN(OCC)C(=O)C1=Cc2ccc(C(=O)Nc3ccc(N4CCC(C(=O)NCCN)CC4)nc3)cc2N=C(N)C1` [8AmBza-18, 2-amino-N8-[6-[4-(2-aminoethylcarbamoyl)-1-piperidyl]-3-pyridyl]-N4-ethoxy-N4-propyl-3H-1-benzazepine-4,8-dicarboxamide]: the concentration giving a half-maximal response (EC50) at human TLR7 is over 9 µM; at human TLR8 it was 5.62 µM.
For `CCCN(CCC)C(=O)C1=Cc2ccc(C(=O)Nc3cnc4c(c3)CNCC4)cc2N=C(N)C1` [8AmBza-19], on human TLR8, the concentration for a half-maximal effect (EC50) amounted to 2.18 µM.
`CCCN(CCC)C(=O)C1=Cc2ccc(C(=O)Nc3cnc4c(c3)CN(C(=O)OC(C)(C)C)CC4)cc2N=C(NC(=O)OC(C)(C)C)C1` [8AmBza-20]: the EC50 on human TLR7 was 8.13 µM; at human TLR8 it was 6.08 µM.
Take `CCCN(CCC)C(=O)C1=Cc2ccc(C(=O)Nc3cncc(CNC(=O)CN)c3)cc2N=C(N)C1` [8AmBza-21]: the EC50 on human TLR7 is over 9 µM.
In the case of `CCCN(CCC)C(=O)C1=Cc2ccc(C(=O)Nc3cncc(CNC(=O)CNC(=O)OC(C)(C)C)c3)cc2N=C(NC(=O)OC(C)(C)C)C1` [8AmBza-22], the EC50 on human TLR7 and at human TLR8 was over 9 µM each time.
Take `CCCN(CCCNC(=O)OC(C)(C)C)C(=O)C1=Cc2ccc(-c3cccc(S(=O)(=O)N4CC(CO)C4)c3)cc2N=C(N)C1` [BZA-2, tert-butyl (3-(2-amino-8-(3-((3-(hydroxymethyl)azetidin-1-yl)sulfonyl)phenyl)-N-propyl-3H-benzo[b]azepine-4-carboxamido)propyl)carbamate, reference compound]: the “TLR7 activity after NHBoc modification of the dipropylamide, versus parent compound” value on human TLR7 was “significantly increasing TLR7 activity”. The “TLR8 activity after NHBoc modification of the dipropylamide, versus parent compound” value on human TLR8 is listed as “minimally perturbs TLR8 activity”.
The like results for `CCCN(CCCNC(=O)OC(C)(C)C)C(=O)C1=Cc2ccc(NC(=O)c3ccccc3)cc2N=C(N)C1` [BZA-4, tert-butyl (3-(2-amino-8-benzamido-N-propyl-3H-benzo[b]azepine-4-carboxamido)propyl)carbamate, reference compound] were, in that order, “increases TLR 7 activity” and “does not affect TLR 8 activity”.

The record behind these values is US20220347310A1, “AMIDE-LINKED, AMINOBENZAZEPINE IMMUNOCONJUGATES, AND USES THEREOF” (BOLT BIOTHERAPEUTICS, INC., priority 2019, published 2022).
